In US20040156869A1, “2-substituted quinazolin-4-ylamine analogues” (Neurogen Corporation, priority 2002, published 2004):
pKi: −log10 of the molar value.

Each compound was assayed against human capsaicin receptor (VR1) (Homo sapiens, UniProt Q8NER1) (assay: Capsaicin receptor binding assay ([3H]RTX competition, VR1-transfected HEK293 membranes)).
human capsaicin receptor (VR1), sequence (Q8NER1 whole entry): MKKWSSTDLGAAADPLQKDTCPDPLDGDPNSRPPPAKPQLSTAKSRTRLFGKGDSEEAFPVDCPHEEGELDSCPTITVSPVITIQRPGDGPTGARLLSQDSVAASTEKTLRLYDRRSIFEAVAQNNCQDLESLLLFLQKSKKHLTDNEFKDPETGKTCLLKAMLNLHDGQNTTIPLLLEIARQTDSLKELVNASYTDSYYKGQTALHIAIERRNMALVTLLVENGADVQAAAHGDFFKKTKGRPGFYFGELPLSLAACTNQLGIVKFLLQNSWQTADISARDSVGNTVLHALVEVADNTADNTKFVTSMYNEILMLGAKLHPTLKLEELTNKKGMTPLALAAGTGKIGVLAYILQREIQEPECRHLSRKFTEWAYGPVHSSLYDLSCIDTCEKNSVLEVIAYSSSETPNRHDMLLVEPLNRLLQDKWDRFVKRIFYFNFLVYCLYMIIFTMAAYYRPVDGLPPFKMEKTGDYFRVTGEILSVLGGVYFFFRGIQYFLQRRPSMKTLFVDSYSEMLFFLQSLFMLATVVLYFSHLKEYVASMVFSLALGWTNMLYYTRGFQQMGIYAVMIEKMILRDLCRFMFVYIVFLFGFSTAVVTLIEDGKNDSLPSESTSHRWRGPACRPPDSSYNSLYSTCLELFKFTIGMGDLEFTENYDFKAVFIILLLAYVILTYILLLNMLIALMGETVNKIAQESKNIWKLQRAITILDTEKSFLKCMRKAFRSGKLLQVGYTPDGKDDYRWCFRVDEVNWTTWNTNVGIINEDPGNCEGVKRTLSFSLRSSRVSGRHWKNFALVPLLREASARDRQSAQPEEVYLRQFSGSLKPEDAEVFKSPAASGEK

SMILES	pKi
COC(=O)CCc1nc(Nc2ccc(C(F)(F)F)cc2)c2ccc(-c3ncccc3C(F)(F)F)cc2n1 [Compound 17, 3-[4-(4-Trifluoromethyl-phenylamino)-7-(3-trifluoromethyl-pyridin-2-yl)-quinazolin-2-yl]-propionic acid methyl ester]	> 6.00
COCc1nc(Nc2ccc(C#N)cc2)c2ncc(-c3ncccc3C(F)(F)F)cc2n1 [Compound 55, 4-[2-Methoxymethyl-7-(3-trifluoromethyl-pyridin-2-yl)-pyrido[3,2-d]pyrimidin-4-ylamino]-benzonitrile]	> 6.00
O=C(c1nc(Nc2ccc(C(F)(F)F)cc2)c2ccc(-c3ncccc3C(F)(F)F)nc2n1)N1CCSCC1 [Compound 463, Thiomorpholin-4-yl-[4-(4-trifluoromethyl-phenylamino)-7-(3-trifluoromethyl-pyridin-2-yl)-pyrido[2,3-d]pyrimidin-2-yl]-methanone]	> 6.00
CN(CCc1nc(Nc2ccc(C(F)(F)F)cc2)c2ccc(-c3ncccc3C(F)(F)F)cc2n1)Cc1ccccc1 [Compound 392, [2-[2-(Benzyl-methyl-amino)-ethyl]-7-(3-trifluoromethyl-pyridin-2-yl)-quinazolin-4-yl]-(4-trifluoromethyl-phenyl)-amine]	> 6.00
O=C(NCCN1CCCCC1)c1nc(Nc2ccc(C(F)(F)F)cc2)c2ccc(-c3ncccc3C(F)(F)F)nc2n1 [Compound 439, 4-(4-Trifluoromethyl-phenylamino)-7-(3-trifluoromethyl-pyridin-2-yl)-pyrido[2,3-d]pyrimidine-2-carboxylic acid (2-piperidin-1-yl-ethyl)-amide]	> 6.00
COCCCNC(=O)c1nc(Nc2ccc(C(F)(F)F)cc2)c2ccc(-c3ncccc3C(F)(F)F)nc2n1 [Compound 456, 4-(4-Trifluoromethyl-phenylamino)-7-(3-trifluoromethyl-pyridin-2-yl)-pyrido[2,3-d]pyrimidine-2-carboxylic acid (3-methoxy-propyl)-amide]	> 6.00
O=S1(=O)CCN(Cc2nc(Nc3ccc(C(F)(F)F)nc3)c3ccc(-c4ncccc4C(F)(F)F)cc3n2)CC1 [Compound 553, [2-(1,1-dioxo-1λ^6-thiomorpholin-4-ylmethyl)-7-(3-trifluoromethyl-pyridin-2-yl)-quinazolin-4-yl]-(6-trifluoromethyl-pyridin-3-yl)-amine]	> 6.00
FC(F)(F)c1ccc(Nc2nc([C@@H]3CCCN3)nc3cc(-c4ncccc4C(F)(F)F)ccc23)cc1 [Compound 695, (S)-[2-Pyrrolidin-2-yl-7-(3-trifluoromethyl-pyridin-2-yl)-quinazolin-4-yl]-(4-trifluoromethyl-phenyl)-amine]	> 6.00
CN1CCN(C(=O)c2nc(Nc3ccc(C(F)(F)F)cc3)c3ccc(-c4ncccc4C(F)(F)F)nc3n2)CC1 [Compound 472, (4-Methyl-piperazin-1-yl)-[4-(4-trifluoromethyl-phenylamino)-7-(3-trifluoromethyl-pyridin-2-yl)-pyrido[2,3-d]pyrimidin-2-yl]-methanone]	> 6.00
COCc1nc(Nc2ccc(C(C)(C)C)cc2)c2ccc(-c3ncccc3Cl)nc2n1 [Compound 59, (4-tert-Butyl-phenyl)-[7-(3-chloro-pyridin-2-yl)-2-methoxymethyl-pyrido[2,3-d]pyrimidin-4-yl]-amine]	> 6.00
Cc1cccnc1-c1ccc2c(Nc3ccc(C(C)(C)C)cc3)nc(C(=O)O)nc2n1 [Compound 207, 4-(4-tert-Butyl-phenylamino)-7-(3-methyl-pyridin-2-yl)-pyrido[2,3-d]pyrimidine-2-carboxylic acid]	> 6.00
CCCN(CC)Cc1nc(Nc2ccc(C(C)C)cc2)c2ccc(-c3ncccc3C)cc2n1 [Compound 715, [2-[(Ethyl-propyl-amino)-methyl]-7-(3-methyl-pyridin-2-yl)-quinazolin-4-yl]-(4-isopropyl-phenyl)-amine]	> 6.00
CCN(CC)CC[C@@H](C)OCc1nc(Nc2ccc(C(C)(C)C)cc2)c2ccc(-c3ncccc3C(F)(F)F)cc2n1 [Compound 145, (4-tert-Butyl-phenyl)-[2-(3-diethylamino-1-methyl-propoxymethyl)-7-(3-trifluoromethyl-pyridin-2-yl)-quinazolin-4-yl]-amine]	> 6.00
CN(CCc1nc(Nc2ccc(C(F)(F)F)cc2)c2ccc(-c3ncccc3C(F)(F)F)cc2n1)Cc1cccc(F)c1 [Compound 394, [2-{2-[(3-Fluoro-benzyl)-methyl-amino]-ethyl}-7-(3-trifluoromethyl-pyridin-2-yl)-quinazolin-4-yl]-(4-trifluoromethyl-phenyl)-amine]	> 6.00
CC1c2ccccc2CCN1Cc1nc(Nc2ccc(C(F)(F)F)nc2)c2ccc(-c3ncccc3C(F)(F)F)cc2n1 (stereo not shown) [Compound 351, [2-(1-Methyl-3,4-dihydro-1H-isoquinolin-2-ylmethyl)-7-(3-trifluoromethyl-pyridin-2-yl)-quinazolin-4-yl]-(6-trifluoromethyl-pyridin-3-yl)-amine]	> 6.00
CC1CCCCN1Cc1cc(Nc2ccc(C(F)(F)F)cc2)c2ccc(-c3ncccc3C(F)(F)F)nc2n1 (stereo not shown) [Compound 810, [2-(2-Methyl-piperidin-1-ylmethyl)-7-(3-trifluoromethyl-pyridin-2-yl)-[1,8]naphthyridin-4-yl]-(4-trifluoromethyl-phenyl)-amine]	> 6.00

SMILES	pKi
C[C@@H]1CN(Cc2cc(Nc3ccc(C(F)(F)F)cc3)c3ccc(-c4ncccc4C(F)(F)F)nc3n2)C[C@H](C)O1 [Compound 773, [2-(2,6-Dimethyl-morpholin-4-ylmethyl)-7-(3-trifluoromethyl-pyridin-2-yl)-[1,8]naphthyridin-4-yl]-(4-trifluoromethyl-phenyl)-amine (cis)]	> 6.00
COCc1nc(Nc2ccc(C(C)(C)C#N)cc2)c2ccc(-c3nccnc3Cl)nc2n1 [Compound 238, 2-{4-[7-(3-Chloro-pyrazin-2-yl)-2-methoxymethyl-pyrido[2,3-d]pyrimidin-4-ylamino]-phenyl}-2-methyl-propionitrile]	> 6.00
CC1(C)CN(Cc2nc(Nc3ccc(C(F)(F)F)cc3)c3ncc(-c4ncccc4C(F)(F)F)cc3n2)CCO1 [Compound 742, [2-(2,2-Dimethyl-morpholin-4-ylmethyl)-7-(3-trifluoromethyl-pyridin-2-yl)-pyrido[3,2-d]pyrimidin-4-yl]-(4-trifluoromethyl-phenyl)-amine]	> 6.00
FC(F)(F)c1ccc(Nc2nc(CN3CCC4(CC3)OCCO4)nc3cc(-c4ncccc4C(F)(F)F)ccc23)cn1 [Compound 364, [2-(1,4-Dioxa-8-aza-spiro[4.5]dec-8-ylmethyl)-7-(3-trifluoromethyl-pyridin-2-yl)-quinazolin-4-yl]-(6-trifluoromethyl-pyridin-3-yl)-amine]	> 6.00
CC1CCN(CCc2nc(Nc3ccc(C(F)(F)F)cc3)c3ccc(-c4ncccc4C(F)(F)F)cc3n2)CC1 [Compound 401, [2-(4-Methyl-piperidin-1-ylethyl)-7-(3-trifluoromethyl-pyridin-2-yl)-quinazolin-4-yl]-(4-trifluoromethyl-phenyl)-amine]	> 6.00
FC(F)(F)c1ccc(Nc2nc(C3CCNCC3)nc3cc(-c4ncccc4C(F)(F)F)ccc23)cc1 [Compound 679, [2-Piperidin-4-yl-7-(3-trifluoromethyl-pyridin-2-yl)-quinazolin-4-yl]-(4-trifluoromethyl-phenyl)-amine]	> 6.00
COCc1nc(Nc2ccc(C#N)cc2)c2ccc(-c3ncccc3C(F)(F)F)nc2n1 [Compound 288, 4-[2-Methoxymethyl-7-(3-trifluoromethyl-pyridin-2-yl)-pyrido[2,3-d]pyrimidin-4-ylamino]-benzonitrile]	> 6.00
CC(C)COCc1nc(Nc2ccc(S(=O)(=O)C(F)(F)F)cc2)c2ccc(-c3ncccc3Cl)nc2n1 [Compound 181, [7-(3-Chloro-pyridin-2-yl)-2-isobutoxymethyl-pyrido[2,3-d]pyrimidin-4-yl]-(4-trifluoromethanesulfonyl-phenyl)-amine]	> 6.00
FC(F)(F)Oc1ccc(Nc2nc(COCc3ccccc3)nc3cc(-c4ncccc4C(F)(F)F)ccc23)cc1 [Compound 27, [2-Benzyloxymethyl-7-(3-trifluoromethyl-pyridin-2-yl)-quinazolin-4-yl]-(4-trifluoromethoxy-phenyl)-amine]	> 6.00
CCCCN(CC)Cc1nc(Nc2ccc(C(F)(F)F)nc2)c2ccc(-c3ncccc3C(F)(F)F)cc2n1 [Compound 374, [2-[(Butyl-ethyl-amino)-methyl]-7-(3-trifluoromethyl-pyridin-2-yl)-quinazolin-4-yl]-(6-trifluoromethyl-pyridin-3-yl)-amine]	> 6.00
COCc1nc(Nc2ccc(C(F)F)cc2)c2ccc(-c3ncccc3Cl)nc2n1 [Compound 243, [7-(3-Chloro-pyridin-2-yl)-2-methoxymethyl-pyrido[2,3-d]pyrimidin-4-yl]-(4-difluoromethyl-phenyl)-amine]	> 6.00
C[C@@H]1CN(Cc2nc(Nc3ccc(C4CC4)cc3)c3ccc(-c4ncccc4C(F)(F)F)cc3n2)C[C@H](C)O1 [Compound 710, (4-Cyclopropyl-phenyl)-[2-(2,6-dimethyl-morpholin-4-ylmethyl)-7-(3-trifluoromethyl-pyridin-2-yl)-quinazolin-4-yl]-amine (cis)]	> 6.00
CCC(C)c1ccc(Nc2nc(COC)nc3nc(-c4ncccc4Cl)ccc23)cc1 (stereo not shown) [Compound 63, (4-sec-Butyl-phenyl)-[7-(3-chloro-pyridin-2-yl)-2-methoxymethyl-pyrido[2,3-d]pyrimidin-4-yl]-amine]	> 6.00
COCc1nc(Nc2ccc(Cl)c(C)c2)c2ccc(-c3ncccc3C(F)(F)F)nc2n1 [Compound 293, (4-Chloro-3-methyl-phenyl)-[2-methoxymethyl-7-(3-trifluoromethyl-pyridin-2-yl)-pyrido[2,3-d]pyrimidin-4-yl]-amine]	> 6.00
Cc1cccnc1-c1ccc2c(Nc3ccc(C(F)(F)F)cc3)nc(CN3CCC[C@H]3C(=O)O)nc2n1 [Compound 747, (S)-1-[7-(3-Methyl-pyridin-2-yl)-4-(4-trifluoromethyl-phenylamino)-pyrido[2,3-d]pyrimidin-2-ylmethyl]-pyrrolidine-2-carboxylic acid]	> 6.00
